Results taken from US9908886B2 (Agency for Science, Technology and Research, priority 2012, dated 2018).
pIC50: −log10 of the molar value.

What was measured:
MNK1 = MNK1 (Homo sapiens, UniProt Q9BUB5); test: In vitro MNK kinase assay (Caliper LabChip mobility shift); format: biochemical; settings: enzymatic, 1.2 mM ATP; read-out: IC50 Mnk1
MNK2 = MNK2 (Homo sapiens (Human), UniProt Q9HBH9); test: as above; format: biochemical; settings: enzymatic, 250 μM ATP; read-out: IC50 Mnk2
Sequence of MNK2 (Q9HBH9 84-388): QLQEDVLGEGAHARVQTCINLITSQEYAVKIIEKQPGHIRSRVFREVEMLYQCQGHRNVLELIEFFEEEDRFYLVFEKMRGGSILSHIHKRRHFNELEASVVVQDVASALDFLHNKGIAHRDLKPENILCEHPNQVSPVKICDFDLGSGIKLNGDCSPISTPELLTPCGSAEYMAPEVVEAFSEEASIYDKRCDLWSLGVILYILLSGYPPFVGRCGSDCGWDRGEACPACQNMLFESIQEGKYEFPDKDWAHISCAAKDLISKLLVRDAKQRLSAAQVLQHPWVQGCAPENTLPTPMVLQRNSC

SMILES	pIC50 (MNK1)	pIC50 (MNK2)
CN1CCN(C2CCN(C(=O)c3ccc(-c4ccc5ncc(-c6ccc7c(c6)CC(=O)N7)n5n4)cc3)CC2)CC1 [Example 89, 5-(6-(4-(4-(4-methylpiperazin-1-yl)piperidine-1-carbonyl)phenyl)imidazol[1,2-b]pyridazin-3-yl)indolin-2-one]	> 7.00	> 7.00
O=C1Cc2cc(-c3cnc4ccc(-c5ccc(C(=O)N6CCC(N7CCOCC7)CC6)cc5)nn34)ccc2N1 [Example 94, 5-(6-(4-(4-morpholinopiperidine-1-carbonyl)phenyl)imidazo[1,2-b]pyridazin-3-yl)indolin-2-one]	> 7.00	> 7.00
CN1CCN(C(=O)c2ccc(-c3ccc4ncc(-c5ccc(C#N)cc5)n4c3)cc2)CC1 [Example 95, 4-(6-(4-(4-Methylpiperazine-1-carbonyl)phenyl)imidazo[1,2-a]pyridin-3-yl)benzonitrile]	> 7.00	> 7.00
N#Cc1ccc(-c2cnc3ccc(-c4ccc(C(=O)N5CCCOCC5)cc4)cn23)cc1 [Example 97]	> 7.00	> 7.00
CCN1CCN(C(=O)c2ccc(-c3ccc4ncc(-c5ccc(C#N)cc5)n4c3)cc2)CC1 [Example 98, 4-(6-(4-(4-ethylpiperazine-1-carbonyl)phenyl)imidazo[1,2-a]pyridin-3-yl)benzonitrile]	> 7.00	> 7.00
CC(=O)NC1(C)CCN(C(=O)c2ccc(-c3ccc4ncc(-c5ccc(C#N)cc5)n4c3)cc2)CC1 [Example 99, N-(1-(4-(3-(4-cyanophenyl)imidazo[1,2-a]pyridin-6-yl)benzoyl)-4-methylpiperidin-4-yl)acetamide]	> 7.00	> 7.00
CCN(CC)C1(C)CCN(C(=O)c2ccc(-c3ccc4ncc(-c5ccc(C#N)cc5)n4c3)cc2)CC1 [Example 100, 4-(6-(4-(4-(diethylamino)-4-methylpiperidine-1-carbonyl)phenyl)imidazo[1,2-a]pyridin-3-yl)benzonitrile]	> 7.00	> 7.00
CN(CC(=O)N1CCOCC1)C(=O)c1ccc(-c2ccc3ncc(-c4ccc(C#N)cc4)n3c2)cc1 [Example 101, 4-(3-(4-cyanophenyl)imidazo[1,2-a]pyridin-6-yl)-N-methyl-N-(2-morpholino-2-oxoethyl)benzamide]	> 7.00	> 7.00
N#Cc1ccc(-c2cnc3ccc(-c4ccc(C(=O)N5CCNC(=O)C5)cc4)cn23)cc1 [Example 102, 4-(6-(4-(3-oxopiperazine-1-carbonyl)phenyl)imidazo[1,2-a]pyridin-3-yl)benzonitrile]	> 7.00	> 7.00
CN1CCCN(C(=O)c2ccc(-c3ccc4ncc(-c5ccc(C#N)cc5)n4c3)cc2)CC1 [Example 103, 4-(6-(4-(4-methyl-1,4-diazepane-1-carbonyl)phenyl)imidazo[1,2-a]pyridin-3-yl)benzonitrile]	> 7.00	> 7.00
CN1CCC(C2CCN(C(=O)c3ccc(-c4ccc5ncc(-c6ccc(C#N)cc6)n5c4)cc3)CC2)CC1 [Example 105, 4-(6-(4-(1′-methyl-4,4′-bipiperidine-1-carbonyl)phenyl)imidazo[1,2-a]pyridin-3-yl)benzonitrile]	> 7.00	> 7.00
CC1(O)CCN(C(=O)c2ccc(-c3ccc4ncc(-c5ccc(C#N)cc5)n4c3)cc2)CC1 [Example 106, 4-(6-(4-(4-hydroxy-4-methylpiperidine-1-carbonyl)phenyl)imidazo[1,2-a]pyridin-3-yl)benzonitrile]	> 7.00	> 7.00
Cc1cc2ncc(-c3ccc(C#N)cc3)n2cc1-c1ccc(C(=O)N2CCC(C)(N)CC2)cc1 [Example 137, 4-(6-(4-(4-amino-4-methylpiperidine-1-carbonyl)phenyl)-7-methylimidazo[1,2-a]pyridin-3-yl)benzonitrile]	> 6.00	> 7.00

Further lines, results first:

pIC50 (MNK1)	pIC50 (MNK2)	SMILES
> 7.00	> 7.00	N#Cc1ccc(-c2cnc3ccc(-c4ccc(C(=O)N5CCCNCC5)cc4)cn23)cc1 [Example 107, 4-(6-(4-(1,4-diazepane-1-carbonyl)phenyl)imidazo[1,2-a]pyridin-3-yl)benzonitrile]
> 7.00	> 7.00	N#Cc1ccc(-c2cnc3ccc(-c4ccc(C(=O)N5CCC(N)CC5)cc4)cn23)cc1 [Example 109, 4-(6-(4-(4-aminopiperidine-1-carbonyl)phenyl)imidazo[1,2-a]pyridin-3-yl)benzonitrile]
> 7.00	> 7.00	CS(=O)(=O)NC1CCN(C(=O)c2ccc(-c3ccc4ncc(-c5ccc(C#N)cc5)n4c3)cc2)CC1 [Example 111, N-(1-(4-(3-(4-cyanophenyl)imidazo[1,2-a]pyridin-6-yl)benzoyl)piperidin-4-yl)methanesulfonamide]
> 7.00	> 7.00	CN(C)C1CCN(C(=O)c2ccc(-c3ccc4ncc(-c5ccc(C#N)cc5)n4c3)cc2)CC1 [Example 112, 4-(6-(4-(4-(dimethylamino)piperidine-1-carbonyl)phenyl)imidazo[1,2-a]pyridin-3-yl)benzonitrile]
> 7.00	> 7.00	CCC1(N)CCN(C(=O)c2ccc(-c3ccc4ncc(-c5ccc(C#N)cc5)n4c3)cc2)CC1 [Example 113, 4-(6-(4-(4-amino-4-ethylpiperidine-1-carbonyl)phenyl)imidazo[1,2-a]pyridin-3-yl)benzonitrile]
> 6.00	> 6.00	N#Cc1ccc(-c2cnc3ccc(-c4ccc(C(=O)NCC(=O)N5CCOCC5)cc4)cn23)cc1 [Example 115, 4-(3-(4-cyanophenyl)imidazo[1,2-a]pyridin-6-yl)-N-(2-morpholino-2-oxoethyl)benzamide]
> 6.00	> 6.00	N#Cc1ccc(-c2cnc3ccc(-c4ccc(C(=O)NCCN5CCOCC5)cc4)cn23)cc1 [Example 116, 4-(3-(4-cyanophenyl)imidazo[1,2-a]pyridin-6-yl)-N-(2-morpholinoethyl)benzamide]
> 7.00	> 7.00	N#Cc1ccc(-c2cnc3ccc(-c4ccc(C(=O)N5CCC6(CCCCN6)CC5)cc4)cn23)cc1 [Example 117, 4-(6-(4-(1,9-diazaspiro[5.5]undecane-9-carbonyl)phenyl)imidazo[1,2-a]pyridin-3-yl)benzonitrile]
> 7.00	> 7.00	CC(=O)N1CCCCC12CCN(C(=O)c1ccc(-c3ccc4ncc(-c5ccc(C#N)cc5)n4c3)cc1)CC2 [Example 118, 4-(6-(4-(1-acetyl-1,9-diazaspiro[5.5]undecane-9-carbonyl)phenyl)imidazo[1,2-a]pyridin-3-yl)benzonitrile]
> 7.00	> 7.00	CN1CCCCC12CCN(C(=O)c1ccc(-c3ccc4ncc(-c5ccc(C#N)cc5)n4c3)cc1)CC2 [Example 119, 4-(6-(4-(1-methyl-1,9-diazaspiro[5.5]undecane-9-carbonyl)phenyl)imidazo[1,2-a]pyridin-3-yl)benzonitrile]
> 6.00	> 6.00	CN(C(=O)c1ccc(-c2ccc3ncc(-c4ccc(C#N)cc4)n3c2)cc1)c1ccncc1 [Example 122, 4-(3-(4-cyanophenyl)imidazo[1,2-a]pyridin-6-yl)-N-methyl-N-(pyridin-4-yl)benzamide]
> 7.00	> 7.00	N#Cc1ccc(-c2cnc3ccc(-c4ccc(C(=O)N5CCC(CN)CC5)cc4)cn23)cc1 [Example 123, 4-(6-(4-(4-(aminomethyl)piperidine-1-carbonyl)phenyl)imidazo[1,2-a]pyridin-3-yl)benzonitrile]
> 7.00	> 7.00	N#Cc1ccc(-c2cnc3ccc(-c4ccc(C(=O)N5CCC(CCN)CC5)cc4)cn23)cc1 [Example 124, 4-(6-(4-(4-(2-aminoethyl)piperidine-1-carbonyl)phenyl)imidazo[1,2-a]pyridin-3-yl)benzonitrile]
> 7.00	> 7.00	N#Cc1ccc(-c2cnc3ccc(-c4ccc(C(=O)N5CCN(C(=O)c6ccccc6)CC5)cc4)cn23)cc1 [Example 126, 4-(6-(4-(4-benzoylpiperazine-1-carbonyl)phenyl)imidazo[1,2-a]pyridin-3-yl)benzonitrile]
> 6.00	> 7.00	N#Cc1ccc(-c2cnc3ccc(-c4ccc(C(=O)N5CCN(Cc6ccc(C(N)=O)cc6)CC5)cc4)cn23)cc1 [Example 129, 4-((4-(4-(3-(4-cyanophenyl)imidazo[1,2-a]pyridin-6-yl)benzoyl)piperazin-1-yl)methyl)benzamide]
> 7.00	> 7.00	CN1CCN(C(=O)c2ccc(-c3ccc4ncc(-c5ccc(C#N)cc5)n4c3)cc2)CC1=O [Example 130, 4-(6-(4-(4-methyl-3-oxopiperazine-1-carbonyl)phenyl)imidazo[1,2-a]pyridin-3-yl)benzonitrile]
> 7.00	> 7.00	N#Cc1ccc(-c2cnc3ccc(-c4ccc(C(=O)N5CCC(N6CCOCC6)CC5)cc4)cn23)cc1 [Example 134, 4-(6-(4-(4-morpholinopiperidine-1-carbonyl)phenyl)imidazo[1,2-a]pyridin-3-yl)benzonitrile]
> 7.00	> 7.00	Cc1nnc(C2(C)CCN(C(=O)c3ccc(-c4ccc5ncc(-c6ccc(C#N)cc6)n5c4)cc3)CC2)o1 [Example 135, 4-(6-(4-(4-methyl-4-(5-methyl-1,3,4-oxadiazol-2-yl)piperidine-1-carbonyl)phenyl)imidazo[1,2-a]pyridin-3-yl)benzonitrile]
> 6.00	> 6.00	Cc1cc2ncc(-c3ccc(C#N)cc3)n2cc1-c1ccc(C(=O)N2CCN(C)CC2)cc1 [Example 138, 4-(7-methyl-6-(4-(4-methylpiperazine-1-carbonyl)phenyl)imidazo[1,2-a]pyridin-3-yl)benzonitrile]
> 7.00	> 7.00	CN1CCN(C(=O)c2ccc(-c3ccc4ncc(-c5ccc(C#N)cc5)n4c3)c(F)c2)CC1 [Example 140, 4-(6-(2-fluoro-4-(4-methylpiperazine-1-carbonyl)phenyl)imidazo[1,2-a]pyridin-3-yl)benzonitrile]
